{"source": "the NIST ThermoML archive (doi:10.1016/j.jct.2018.07.002)", "key": {"[1]": {"experiment": "molar heat capacity at constant pressure", "conditions": "100 kPa, Liquid, isoperibol calorimetry"}, "[2]": {"experiment": "excess molar enthalpy (molar enthalpy of mixing); xn = mol fraction of the nth substance listed", "conditions": "313.15 K, 100 kPa, Liquid, Power-compensation calorimetry"}}, "note": "Numbers after ± are expanded uncertainties."}
{"smiles": "CCOP(=O)([O-])OCC.CCn1cc[n+](C)c1", "note": "[1-ethyl-3-methylimidazolium diethyl phosphate]", "values": [{"measurement": "molar heat capacity at constant pressure", "setting": "[1]; 303.15 K", "value": "504.73 ± 32", "unit": "J/K/mol"}, {"measurement": "molar heat capacity at constant pressure", "setting": "[1]; 313.15 K", "value": "507.38 ± 32", "unit": "J/K/mol"}, {"measurement": "molar heat capacity at constant pressure", "setting": "[1]; 323.15 K", "value": "510.02 ± 32", "unit": "J/K/mol"}, {"measurement": "molar heat capacity at constant pressure", "setting": "[1]; 333.15 K", "value": "515.3 ± 32", "unit": "J/K/mol"}, {"measurement": "molar heat capacity at constant pressure", "setting": "[1]; 343.15 K", "value": "523.23 ± 32", "unit": "J/K/mol"}, {"measurement": "molar heat capacity at constant pressure", "setting": "[1]; 353.15 K", "value": "528.52 ± 32", "unit": "J/K/mol"}, {"measurement": "molar heat capacity at constant pressure", "setting": "[1]; 363.15 K", "value": "536.44 ± 32", "unit": "J/K/mol"}, {"measurement": "molar heat capacity at constant pressure", "setting": "[1]; 373.15 K", "value": "541.73 ± 32", "unit": "J/K/mol"}]}
{"smiles": "CCOP(=O)([O-])OCC.CCn1cc[n+](C)c1", "note": "[1-ethyl-3-methylimidazolium diethyl phosphate] + O", "values": [{"measurement": "excess molar enthalpy", "setting": "[2]; x1 = 0.017", "value": "-0.112 ± 0.00454", "unit": "kcal/mol"}, {"measurement": "excess molar enthalpy", "setting": "[2]; x1 = 0.019", "value": "-0.13 ± 0.00526", "unit": "kcal/mol"}, {"measurement": "excess molar enthalpy", "setting": "[2]; x1 = 0.023", "value": "-0.154 ± 0.00621", "unit": "kcal/mol"}, {"measurement": "excess molar enthalpy", "setting": "[2]; x1 = 0.027", "value": "-0.181 ± 0.00741", "unit": "kcal/mol"}, {"measurement": "excess molar enthalpy", "setting": "[2]; x1 = 0.25", "value": "-1.19 ± 0.0478", "unit": "kcal/mol"}, {"measurement": "excess molar enthalpy", "setting": "[2]; x1 = 0.5", "value": "-1.26 ± 0.0502", "unit": "kcal/mol"}]}
